# Data: PMC8016998, “Identification of potential therapeutic antimicrobial peptides against Acinetobacter baumannii in a mouse model of pneumonia” (Scientific Reports, 2021)
# Read-outs that look alike come from different tables or passages of the source. No end group written: not given here.
# Legend:
# [1] = tested on: A. baumannii laboratory strains (ATCC strains 17,978 and 19,606); type: cell-based, Acinetobacter baumannii; conditions: disc diffusion; activity = inhibition zone diameter ≥ 10 mm
# Experimental: The antimicrobial activities of 58 AMPs were screened against A. baumannii laboratory strains (ATCC strains 17,978 and 19,606) in vitro using a disc diffusion assay (Supplementary Table 1).
# The antimicrobial activity against Acinetobacter baumannii were determined by a inhibition zone
# assay, performed as previous described1. The AMPs with an inhibition zone diameter ≥ 10 mm were
# determined as the AMPs with antimicrobial activity.
# [2] = tested on: MDRAB clinical strain U80; type: cell-based, Acinetobacter baumannii
# Experimental: (§1) MBC were determined by extending the MIC procedure in sterilized 96-well polypropylene microtiter plates according to the broth microdilution guidelines of the Clinical and Laboratory Standards Institute with some modification[47]. […] In addition, 10 µL was drawn from each well with no visible turbidity onto LB agar plates and incubated for 24 h at 37 °C. The lowest concentration showing no visible growth on agar subculture was used as the MBC value. All experiments were performed in triplicate.
# [3] = tested on: MDRAB clinical strain AO80; type: cell-based, Acinetobacter baumannii
# [4] = tested on: MDRAB clinical strain O59; type: cell-based, Acinetobacter baumannii
# Experimental: as §1
# [5] = tested on: MDRAB clinical strain AF11; type: cell-based, Acinetobacter baumannii
# [6] = tested on: MDRAB clinical strain AS40; type: cell-based, Acinetobacter baumannii
# Experimental: as §1
# [7] = tested on: MDRAB clinical strain AE6; type: cell-based, Acinetobacter baumannii
# Experimental: as §1
# [8] = tested on: MDRAB clinical strain D29; type: cell-based, Acinetobacter baumannii
# [9] = tested on: MDRAB clinical strain AL87; type: cell-based, Acinetobacter baumannii
# Experimental: as §1
# [10] = tested on: MDRAB clinical strain J49; type: cell-based, Acinetobacter baumannii
# MDRAB clinical strains = type: cell-based, Acinetobacter baumannii
# [11] = tested on: MDRAB clinical strain Y92; type: cell-based, Acinetobacter baumannii
# [12] = tested on: MDRAB clinical strain L87; type: cell-based, Acinetobacter baumannii
# [13] = tested on: MDRAB clinical strain AF93; type: cell-based, Acinetobacter baumannii
# Experimental: as §1
# [14] = tested on: Acinetobacter baumannii 19,606; type: cell-based
# Experimental: as §1
# [15] = tested on: Acinetobacter baumannii 17,978; type: cell-based;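 also: CLSI broth microdilution in 96-well polypropylene plates, MBC taken as lowest concentration giving no growth when clear wells were subcultured on LB agar for 24 h at 37 °C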
# MDRAB clinical strain K2 = type: cell-based, Acinetobacter baumannii
# [16] = tested on: MDRAB clinical strain AG51; type: cell-based, Acinetobacter baumannii
# [17] = tested on: MDRAB clinical strain AN10; type: cell-based, Acinetobacter baumannii
# Experimental: as §1
# [18] = tested on: MDRAB clinical strain U95; type: cell-based, Acinetobacter baumannii
# Experimental: as §1
# [19] = tested on: MDRAB clinical strain AZ93; type: cell-based, Acinetobacter baumannii
# Experimental: as §1
# [20] = tested on: MDRAB clinical strain AF12; type: cell-based, Acinetobacter baumannii
# [21] = tested on: MDRAB clinical strain W11; type: cell-based, Acinetobacter baumannii
# [22] = tested on: MDRAB clinical strain AE5; type: cell-based, Acinetobacter baumannii
# Experimental: as §1
# [23] = tested on: MDRAB clinical strain AK61; type: cell-based, Acinetobacter baumannii
# [24] = tested on: MDRAB clinical strain AK29; type: cell-based, Acinetobacter baumannii
# Experimental: as §1
# [25] = 10 µL from wells without turbidity onto LB agar, 24 h at 37 °C, triplicate
compound,measurement,setting,value
"AKKVFKRLG IGKFLHSAKKF-NH2 [HPMA, antimicrobial peptide]",antimicrobial activity against Acinetobacter baumannii (inhibition zone assay),[1],without antimicrobial activity (The antimicrobial peptides without antimicrobial activity)
GYNYAKKLANLAKKFANALW-NH2 [GW-H1a],MBC,[2]; 24 h,32 mg/L
same,MIC,[2]; 24 h,16 mg/L
same,MBC,[3]; 24 h,8 mg/L
same,MIC,[3]; 24 h,8 mg/L
same,MBC,[4]; 24 h,32 mg/L
same,MIC,[4]; 24 h,16 mg/L
same,MBC,[5]; 24 h,16 mg/L
same,MIC,[5]; 24 h,8 mg/L
same,MBC,[6]; 24 h,8 mg/L
same,MIC,[6]; 24 h,8 mg/L
same,MBC,[7]; 24 h,16 mg/L
same,MIC,[7]; 24 h,8 mg/L
same,MBC,[8]; 24 h,32 mg/L
same,MIC,[8]; 24 h,16 mg/L
same,MBC,[9]; 24 h,8 mg/L
same,MIC,[9]; 24 h,8 mg/L
same,MBC,[10]; 24 h,8 mg/L
same,MIC,[10]; 24 h,8 mg/L
same,MBC,MDRAB clinical strains; 24 h,8 to 32 mg/L
same,MIC,MDRAB clinical strains; 24 h,8 to 16 mg/L
same,MBC,[11]; 24 h,8 mg/L
same,MIC,[11]; 24 h,8 mg/L
same,MBC,[12]; 24 h,32 mg/L
same,MIC,[12]; 24 h,16 mg/L
same,MBC,[13]; 24 h,8 mg/L
same,MIC,[13]; 24 h,8 mg/L
same,MBC,"[14]; 19,606, 24 h",16 mg/L
same,MIC,"[14]; 19,606, 24 h",16 mg/L
same,MBC,"[15]; 17,978, 24 h",32 mg/L
same,MIC,"[15]; 17,978, 24 h",32 mg/L
same,MBC,MDRAB clinical strain K2; 24 h,16 mg/L
same,MIC,MDRAB clinical strain K2; 24 h,16 mg/L
same,MBC,[16]; 24 h,8 mg/L
same,MIC,[16]; 24 h,8 mg/L
same,MBC,[17]; 24 h,8 mg/L
same,MIC,[17]; 24 h,8 mg/L
same,MBC,[18]; 24 h,32 mg/L
same,MIC,[18]; 24 h,16 mg/L
same,MBC,[19]; 24 h,8 mg/L
same,MIC,[19]; 24 h,8 mg/L
same,MBC,[20]; 24 h,16 mg/L
same,MIC,[20]; 24 h,8 mg/L
same,MBC,[21]; 24 h,16 mg/L
same,MIC,[21]; 24 h,16 mg/L
same,MBC,[22]; 24 h,16 mg/L
same,MIC,[22]; 24 h,16 mg/L
same,MBC,[23]; 24 h,8 mg/L
same,MIC,[23]; 24 h,8 mg/L
same,MBC,[24]; 24 h,8 mg/L
same,MIC,[24]; 24 h,8 mg/L
CC[C@H](C)[C@H](NC(=O)CNC(=O)[C@@H](NC(=O)[C@H](CCCCN)NC(=O)[C@H](CCCCN)NC(=O)[C@H](Cc1ccccc1)NC(=O)[C@H](CC(C)C)NC(=O)[C@H](CCCCN)NC(=O)[C@H](Cc1c[nH]c2ccccc12)NC(=O)[C@@H](N)CCCCN)[C@@H](C)CC)C(=O)NCC(=O)N[C@@H](C)C(=O)N[C@H](C(=O)N[C@@H](CC(C)C)C(=O)N[C@@H](CCCCN)C(=O)N[C@H](C(=O)N[C@@H](CC(C)C)C(=O)N[C@H](C(=O)N[C@H](C(=O)NCC(N)=O)[C@@H](C)O)[C@@H](C)O)C(C)C)C(C)C [CAME],MIC,"[2]; strain U80, broth microdilution, LB, 24 h 37 °C",16 mg/L
same,MBC,"[2]; strain U80, subculture on LB agar, 24 h 37 °C",32 mg/L
same,MIC,"[3]; strain AO80, broth microdilution, LB, 24 h 37 °C",8 mg/L
same,MBC,"[3]; strain AO80, subculture on LB agar, 24 h 37 °C",16 mg/L
same,MIC,"[4]; strain O59, broth microdilution, LB, 24 h 37 °C",32 mg/L
same,MBC,"[4]; strain O59, subculture on LB agar, 24 h 37 °C",64 mg/L
same,MIC,"[5]; strain AF11, broth microdilution, LB, 24 h 37 °C",16 mg/L
same,MBC,"[5]; strain AF11, subculture on LB agar, 24 h 37 °C",32 mg/L
same,MIC,"[6]; strain AS40, broth microdilution, LB, 24 h 37 °C",8 mg/L
same,MBC,"[6]; strain AS40, subculture on LB agar, 24 h 37 °C",8 mg/L
same,MIC,"[7]; strain AE6, broth microdilution, LB, 24 h 37 °C",32 mg/L
same,MBC,"[7]; strain AE6, subculture on LB agar, 24 h 37 °C",32 mg/L
same,MIC,"[8]; strain D29, broth microdilution, LB, 24 h 37 °C",32 mg/L
same,MBC,"[8]; strain D29, subculture on LB agar, 24 h 37 °C",32 mg/L
same,MIC,"[9]; strain AL87, broth microdilution, LB, 24 h 37 °C",32 mg/L
same,MBC,"[9]; strain AL87, subculture on LB agar, 24 h 37 °C",32 mg/L
same,MIC,"[10]; strain J49, broth microdilution, LB, 24 h 37 °C",16 mg/L
same,MBC,"[10]; strain J49, subculture on LB agar, 24 h 37 °C",32 mg/L
same,MIC,"MDRAB clinical strains; range over MDRAB clinical strains (details in Supplementary Table 2), broth microdilution, LB, 24 h 37 °C",8 to 32 mg/L
same,MBC,"MDRAB clinical strains; range over MDRAB clinical strains (details in Supplementary Table 2), subculture on LB agar, 24 h 37 °C",8 to 64 mg/L
same,MIC,"[11]; strain Y92, broth microdilution, LB, 24 h 37 °C",32 mg/L
same,MBC,"[11]; strain Y92, subculture on LB agar, 24 h 37 °C",32 mg/L
same,MIC,"[12]; strain L87, broth microdilution, LB, 24 h 37 °C",32 mg/L
same,MBC,"[12]; strain L87, subculture on LB agar, 24 h 37 °C",64 mg/L
same,MIC,"[13]; strain AF93, broth microdilution, LB, 24 h 37 °C",32 mg/L
same,MBC,"[13]; strain AF93, subculture on LB agar, 24 h 37 °C",32 mg/L
same,MBC,[14]; [25],32 mg/L
same,MIC,"[14]; broth microdilution (CLSI, modified), LB medium, 5 × 10^5 CFU/mL, 24 h at 37 °C, triplicate",32 mg/L
same,MBC,[15]; [25],32 mg/L
same,MIC,"[15]; broth microdilution (CLSI, modified), LB medium, 5 × 10^5 CFU/mL, 24 h at 37 °C, lowest concentration with no visible growth, triplicate",32 mg/L
same,MIC,"MDRAB clinical strain K2; strain K2, broth microdilution, LB, 24 h 37 °C",8 mg/L
same,MBC,"MDRAB clinical strain K2; strain K2, subculture on LB agar, 24 h 37 °C",16 mg/L
same,MIC,"[16]; strain AG51, broth microdilution, LB, 24 h 37 °C",16 mg/L
same,MBC,"[16]; strain AG51, subculture on LB agar, 24 h 37 °C",32 mg/L
same,MIC,"[17]; strain AN10, broth microdilution, LB, 24 h 37 °C",16 mg/L
same,MBC,"[17]; strain AN10, subculture on LB agar, 24 h 37 °C",32 mg/L
same,MIC,"[18]; strain U95, broth microdilution, LB, 24 h 37 °C",32 mg/L
same,MBC,"[18]; strain U95, subculture on LB agar, 24 h 37 °C",64 mg/L
same,MIC,"[19]; strain AZ93, broth microdilution, LB, 24 h 37 °C",8 mg/L
same,MBC,"[19]; strain AZ93, subculture on LB agar, 24 h 37 °C",8 mg/L
same,MIC,"[20]; strain AF12, broth microdilution, LB, 24 h 37 °C",16 mg/L
same,MBC,"[20]; strain AF12, subculture on LB agar, 24 h 37 °C",16 mg/L
same,MIC,"[21]; strain W11, broth microdilution, LB, 24 h 37 °C",16 mg/L
same,MBC,"[21]; strain W11, subculture on LB agar, 24 h 37 °C",32 mg/L
same,MIC,"[22]; strain AE5, broth microdilution, LB, 24 h 37 °C",32 mg/L
same,MBC,"[22]; strain AE5, subculture on LB agar, 24 h 37 °C",32 mg/L
same,MIC,"[23]; strain AK61, broth microdilution, LB, 24 h 37 °C",8 mg/L
same,MBC,"[23]; strain AK61, subculture on LB agar, 24 h 37 °C",16 mg/L
same,MIC,"[24]; strain AK29, broth microdilution, LB, 24 h 37 °C",8 mg/L
same,MBC,"[24]; strain AK29, subculture on LB agar, 24 h 37 °C",16 mg/L
